Experimental data from patent US20170152269A1, “FUSED BICYCLIC COMPOUNDS AND THEIR USE AS CDK INHIBITORS” (priority 2016, published 2017).

Key:
CDK7 = target: T1, CDK7 (Homo sapiens, UniProt P50613); assay: Lance TR-FRET kinase assay, CDK7; type: biochemical; settings: ATP 50 μM, 60 min; for IC50: read-out: CDK 7 inhibitory activity (IC50)
T1 construct: purchased ThermoFisher (Waltham, Mass.)
Experimental: (§1) Inhibitory activity of compounds against CDK1/2/4/5/6/7 was assessed using Lance TR-FRET assay kits from Perkin Elmer Life Sciences (Waltham, Mass.). CDK1/2/4/5/6/7 enzymes were purchased from ThermoFisher (Waltham, Mass.). […] Final concentrations of substrates and DMSO were 100 nM and 0.5%, respectively. Concentrations of ATP and different CDK enzymes were adjusted accordingly to achieve optimal enzymatic activities. Final CDK concentrations were 100, 500, 600, 100, 50, and 200 ng/well and ATP concentrations were 30, 50, 100, 20, 100, and 50 μM for CDK1/2/4/5/6/7, respectively. Assay plates were covered to protect from light and spun for 1 min at 700 RPM. Reactions were allowed to perform for 60 minutes in dark with gentle shaking at room temperature after which 5 μL of 40 mM EDTA in detection buffer was added to stop reactions followed 5 μL of the Eu labeled antibodies giving final concentrations of 2 nM to detect the phosphorylation of the peptide substrates. […] The percent of inhibition was calculated from the means of data points using the formula: 100−(Signalcompound−NoSignalbackground)*100/(Signalvehicle−NoSignalbackground). The IC50s were determined with GraphPad Prism by the non-linear sigmoidal curve fitting of data from 10 doses.

CDK9/cyclin T1 = target: T2, CDK9/cyclin T1 (Homo sapiens, UniProt P50750); assay: LanthaScreen Eu kinase binding assay, CDK9; settings: tracer 236 displacement, CDK9/cyclin T1 5 nM, 1 hour; read-out: CDK 9 inhibitory activity (IC50)
T2 construct: purchased ThermoFisher (Waltham, Mass.)
T2 sequence (P50750 whole entry): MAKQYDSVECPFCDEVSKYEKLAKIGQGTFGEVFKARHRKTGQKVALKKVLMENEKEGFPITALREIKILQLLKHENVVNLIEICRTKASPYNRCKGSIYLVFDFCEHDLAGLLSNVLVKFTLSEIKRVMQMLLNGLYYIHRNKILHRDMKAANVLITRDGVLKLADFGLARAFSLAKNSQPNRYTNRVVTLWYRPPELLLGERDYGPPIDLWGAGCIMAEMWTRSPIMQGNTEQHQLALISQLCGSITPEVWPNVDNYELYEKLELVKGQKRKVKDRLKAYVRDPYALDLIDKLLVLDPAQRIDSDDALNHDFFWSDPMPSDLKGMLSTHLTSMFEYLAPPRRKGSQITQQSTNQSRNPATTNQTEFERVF
T2 sequence (O60563 whole entry partner): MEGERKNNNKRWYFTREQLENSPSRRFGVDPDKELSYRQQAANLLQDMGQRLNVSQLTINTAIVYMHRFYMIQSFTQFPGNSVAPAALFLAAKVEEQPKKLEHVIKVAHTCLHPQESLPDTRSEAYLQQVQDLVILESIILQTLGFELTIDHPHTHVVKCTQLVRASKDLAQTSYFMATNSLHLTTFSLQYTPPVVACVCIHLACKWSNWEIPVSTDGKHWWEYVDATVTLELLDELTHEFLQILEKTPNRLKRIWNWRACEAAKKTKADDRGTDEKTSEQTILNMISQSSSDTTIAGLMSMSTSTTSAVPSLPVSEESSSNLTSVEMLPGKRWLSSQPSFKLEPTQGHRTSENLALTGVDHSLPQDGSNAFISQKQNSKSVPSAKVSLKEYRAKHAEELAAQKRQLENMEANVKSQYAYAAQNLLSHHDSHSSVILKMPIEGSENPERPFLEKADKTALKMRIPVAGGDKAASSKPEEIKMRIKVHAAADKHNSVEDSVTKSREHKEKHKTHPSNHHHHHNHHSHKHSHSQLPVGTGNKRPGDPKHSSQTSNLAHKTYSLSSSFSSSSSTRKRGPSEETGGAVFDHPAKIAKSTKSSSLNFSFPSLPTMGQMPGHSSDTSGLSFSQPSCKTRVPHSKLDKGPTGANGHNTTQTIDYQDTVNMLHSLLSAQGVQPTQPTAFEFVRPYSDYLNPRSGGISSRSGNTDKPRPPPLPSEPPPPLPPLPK
Experimental: (§2) Time Resolved-Fluorescent Resonance Energy Transfer (TR-FRET) was used to determine inhibitory ability of compounds A1˜A19, B1s and B1˜B12 against the enzymatic activity of CDK1, CDK2, CDK4, CDK5, CDK6, CDK7, and CDK9.
The CDK9 kinase inhibitory activity of compounds was tested in the LanthaScreen Eu kinase binding assay from ThermoFisher. LanthaScreen® Eu Kinase binding assays are based on the binding and displacement of a proprietary, Alexa Fluor® 647-labeled, ATP-competitive kinase inhibitor scaffold (kinase tracer) to CDK9. CDK9/cyclin T1, Kinase tracer 236 and LanthaScreen® Eu-anti-His Antibody were purchased form ThermoFisher (Waltham, Mass.). 5 μL of CDK9/cyclin T1 (final 5 nM)/antibody (final 2 nM) mixture, 5 μL of compound in kinase buffer, and 5 μL of tracer (final 30 nM) were added to wells of a white OptiPlate-384 plate in this specific order. Assay plates were covered to protect from light, spun for 1 min at 700 RPM and incubated at room temperature for 1 hour. Assay plates were read with the EnVision™ Multilabel Reader in TR-FRET mode (excitation at 320 nm and emission at 665 nm). The percent of inhibition was calculated from the means of data points using the formula: 100−(Signalcompound−NoSignalbackgound)*100/(Signalvehicle−NoSignalbackground). The IC50s were determined with GraphPad Prism by the non-linear sigmoidal curve fitting of data from 10 doses.

CDK5 = target: T3, CDK5 (Homo sapiens, UniProt Q00535); assay: Lance TR-FRET kinase assay, CDK5; type: biochemical; settings: ATP 20 μM, 60 min, read-out: CDK 5 inhibitory activity (IC50)
T3 construct: purchased ThermoFisher (Waltham, Mass.)
T3 sequence (Q00535 whole entry): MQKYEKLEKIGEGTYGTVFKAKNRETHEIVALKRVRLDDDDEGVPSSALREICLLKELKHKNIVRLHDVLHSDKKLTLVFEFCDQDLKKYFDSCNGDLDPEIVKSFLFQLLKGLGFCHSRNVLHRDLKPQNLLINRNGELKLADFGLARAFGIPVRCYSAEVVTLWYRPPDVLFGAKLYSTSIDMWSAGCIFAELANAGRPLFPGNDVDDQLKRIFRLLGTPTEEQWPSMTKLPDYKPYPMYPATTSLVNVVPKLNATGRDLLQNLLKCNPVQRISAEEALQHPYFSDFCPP
T3 sequence (Q15078 whole entry partner): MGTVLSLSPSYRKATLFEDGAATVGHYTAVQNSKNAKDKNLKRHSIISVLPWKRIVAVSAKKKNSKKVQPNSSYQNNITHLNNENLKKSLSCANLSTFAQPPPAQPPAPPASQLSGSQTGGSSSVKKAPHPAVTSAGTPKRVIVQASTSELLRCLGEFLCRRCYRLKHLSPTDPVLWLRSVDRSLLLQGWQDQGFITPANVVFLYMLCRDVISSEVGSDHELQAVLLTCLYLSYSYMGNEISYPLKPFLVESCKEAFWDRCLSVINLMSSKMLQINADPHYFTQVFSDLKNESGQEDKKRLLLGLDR
Experimental: as §2
(§3) Inhibitory activity of compounds against CDK1/2/4/5/6/7 was assessed using Lance TR-FRET assay kits from Perkin Elmer Life Sciences (Waltham, Mass.). CDK1/2/4/5/6/7 enzymes were purchased from ThermoFisher (Waltham, Mass.). 2.5 μL of compound solutions and 2.5 μL of enzyme solutions in kinase assay buffer, which was 50 mM HEPES (pH 7.5) with 1 mM EGTA, 1 mM MgCl2, 2 mM DTT, and 0.01% Tween-20, were added into a white OptiPlate-384 plate followed by adding 5 μL of fluorescently labeled peptide substrates (Ulight-4E-BP1 for CDK4/6 and Ulight-MBP for […]) and ATP mixture solutions. Final concentrations of substrates and DMSO were 100 nM and 0.5%, respectively. Concentrations of ATP and different CDK enzymes were adjusted accordingly to achieve optimal enzymatic activities. Final CDK concentrations were 100, 500, 600, 100, 50, and 200 ng/well and ATP concentrations were 30, 50, 100, 20, 100, and 50 μM for CDK1/2/4/5/6/7, respectively. Assay plates were covered to protect from light and spun for 1 min at 700 RPM. Reactions were allowed to perform for 60 minutes in dark with gentle shaking at room temperature after which 5 μL of 40 mM EDTA in detection buffer was added to stop reactions followed 5 μL of the Eu labeled antibodies giving final concentrations of 2 nM to detect the phosphorylation of the peptide substrates. Assay plates were read with the EnVision™ Multilabel Reader in TR-FRET mode (excitation at 320 nm and emission at 665 nm). The percent of inhibition was calculated from the means of data points using the formula: 100−(Signalcompound−NoSignalbackground)*100/(Signalvehicle−NoSignalbackground). The IC50s were determined with GraphPad Prism by the non-linear sigmoidal curve fitting of data from 10 doses.

CDK6 = target: T4, CDK6 (Homo sapiens, UniProt Q00534); assay: Lance TR-FRET kinase assay, CDK6; type: biochemical
T4 construct: purchased ThermoFisher (Waltham, Mass.)
T4 sequence (Q00534 whole entry): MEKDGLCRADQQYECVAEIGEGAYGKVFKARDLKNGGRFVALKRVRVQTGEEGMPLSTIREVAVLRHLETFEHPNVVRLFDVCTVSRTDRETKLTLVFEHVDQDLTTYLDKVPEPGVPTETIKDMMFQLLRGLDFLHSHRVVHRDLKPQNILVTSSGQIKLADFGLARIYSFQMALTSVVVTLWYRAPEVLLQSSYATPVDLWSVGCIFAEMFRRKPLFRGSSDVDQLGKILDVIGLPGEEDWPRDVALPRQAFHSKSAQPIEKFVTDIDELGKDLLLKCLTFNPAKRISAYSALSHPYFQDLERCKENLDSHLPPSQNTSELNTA
T4 sequence (P24385 whole entry partner): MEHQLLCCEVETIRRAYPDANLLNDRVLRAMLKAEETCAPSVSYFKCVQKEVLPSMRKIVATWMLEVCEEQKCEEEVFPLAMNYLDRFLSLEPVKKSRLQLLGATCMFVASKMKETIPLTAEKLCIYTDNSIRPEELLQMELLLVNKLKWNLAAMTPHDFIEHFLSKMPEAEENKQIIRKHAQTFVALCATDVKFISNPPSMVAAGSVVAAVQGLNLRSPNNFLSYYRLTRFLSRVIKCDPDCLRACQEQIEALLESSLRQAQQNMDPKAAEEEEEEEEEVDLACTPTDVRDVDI
Experimental: as §2, §3

CDK4 = target: T5, CDK4 (Homo sapiens, UniProt P11802); assay: Lance TR-FRET kinase assay, CDK4; type: biochemical; settings: ATP 100 μM, 60 min, read-out: CDK 4 inhibitory activity (IC50)
T5 construct: purchased ThermoFisher (Waltham, Mass.)
T5 sequence (P11802 whole entry): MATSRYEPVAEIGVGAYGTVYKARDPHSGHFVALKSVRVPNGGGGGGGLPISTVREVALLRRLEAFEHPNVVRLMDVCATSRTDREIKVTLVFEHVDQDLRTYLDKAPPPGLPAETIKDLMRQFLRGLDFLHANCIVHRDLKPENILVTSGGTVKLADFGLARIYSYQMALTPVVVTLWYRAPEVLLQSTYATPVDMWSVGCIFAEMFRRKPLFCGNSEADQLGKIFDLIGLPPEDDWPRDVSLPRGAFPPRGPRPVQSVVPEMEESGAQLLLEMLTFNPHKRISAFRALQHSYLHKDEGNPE
T5 sequence (P24385 whole entry partner): as the sequence (P24385 whole entry partner) above
Experimental: as §1

CDK2 = target: T6, CDK2 (Homo sapiens, UniProt P24941); assay: Lance TR-FRET kinase assay, CDK2; type: biochemical; settings: ATP 50 μM, 60 min, read-out: CDK 2 inhibitory activity (IC50)
T6 construct: purchased ThermoFisher (Waltham, Mass.)
Experimental: as §2, §3

CDK1 = target: T7, CDK1 (Homo sapiens, UniProt P06493); assay: Lance TR-FRET kinase assay, CDK1; type: biochemical; settings: ATP 30 μM, 60 min, read-out: CDK 1 inhibitory activity (IC50)
T7 construct: purchased ThermoFisher (Waltham, Mass.)
T7 sequence (P06493 whole entry): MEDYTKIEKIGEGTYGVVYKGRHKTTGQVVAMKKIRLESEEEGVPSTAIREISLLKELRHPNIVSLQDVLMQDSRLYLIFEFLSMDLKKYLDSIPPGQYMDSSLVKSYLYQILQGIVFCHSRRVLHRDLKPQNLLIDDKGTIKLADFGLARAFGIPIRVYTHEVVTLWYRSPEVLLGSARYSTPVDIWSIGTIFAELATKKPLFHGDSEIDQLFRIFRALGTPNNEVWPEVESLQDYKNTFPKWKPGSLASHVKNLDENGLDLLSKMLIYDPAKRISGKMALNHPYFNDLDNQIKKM
T7 sequence (P14635 whole entry partner): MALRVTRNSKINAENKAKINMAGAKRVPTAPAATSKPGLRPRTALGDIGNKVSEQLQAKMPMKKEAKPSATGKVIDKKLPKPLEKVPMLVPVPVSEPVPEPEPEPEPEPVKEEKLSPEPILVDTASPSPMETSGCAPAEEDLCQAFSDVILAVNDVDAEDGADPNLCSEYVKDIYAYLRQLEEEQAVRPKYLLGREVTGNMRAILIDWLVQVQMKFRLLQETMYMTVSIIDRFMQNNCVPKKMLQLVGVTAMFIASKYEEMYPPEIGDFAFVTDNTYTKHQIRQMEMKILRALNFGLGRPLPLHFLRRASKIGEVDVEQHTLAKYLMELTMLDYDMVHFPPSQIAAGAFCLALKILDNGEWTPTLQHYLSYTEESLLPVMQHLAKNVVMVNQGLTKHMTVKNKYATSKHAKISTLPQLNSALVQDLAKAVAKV
Experimental: as §2, §3

T1 sequence (P50613 whole entry): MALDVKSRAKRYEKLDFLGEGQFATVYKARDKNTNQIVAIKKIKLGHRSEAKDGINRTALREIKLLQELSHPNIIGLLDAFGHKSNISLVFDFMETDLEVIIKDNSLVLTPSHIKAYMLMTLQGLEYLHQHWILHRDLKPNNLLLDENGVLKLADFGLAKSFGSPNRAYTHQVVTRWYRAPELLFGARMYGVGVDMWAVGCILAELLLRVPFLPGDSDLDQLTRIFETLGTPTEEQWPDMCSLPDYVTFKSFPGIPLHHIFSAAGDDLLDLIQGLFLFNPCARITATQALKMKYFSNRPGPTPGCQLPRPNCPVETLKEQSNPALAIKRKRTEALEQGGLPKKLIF
T1 sequence (P51946 whole entry partner): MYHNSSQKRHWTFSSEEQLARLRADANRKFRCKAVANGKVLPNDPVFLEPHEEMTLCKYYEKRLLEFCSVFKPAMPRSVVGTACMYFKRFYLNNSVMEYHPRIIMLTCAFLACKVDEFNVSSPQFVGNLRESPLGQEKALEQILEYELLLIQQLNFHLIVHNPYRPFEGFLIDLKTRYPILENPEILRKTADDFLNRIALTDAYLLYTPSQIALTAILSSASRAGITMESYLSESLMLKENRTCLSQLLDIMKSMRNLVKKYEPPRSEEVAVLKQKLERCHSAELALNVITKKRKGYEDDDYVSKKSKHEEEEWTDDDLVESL
T1 sequence (P51948 whole entry partner): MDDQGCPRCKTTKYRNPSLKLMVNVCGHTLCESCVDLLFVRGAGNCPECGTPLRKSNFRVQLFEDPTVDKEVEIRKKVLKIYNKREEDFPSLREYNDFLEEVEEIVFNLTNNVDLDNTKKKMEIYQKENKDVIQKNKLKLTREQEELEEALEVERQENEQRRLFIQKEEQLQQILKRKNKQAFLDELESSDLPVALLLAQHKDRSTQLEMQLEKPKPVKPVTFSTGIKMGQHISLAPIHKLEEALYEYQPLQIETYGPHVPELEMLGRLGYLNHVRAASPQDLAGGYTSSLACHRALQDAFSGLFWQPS

IC50 (CDK7) [nM] | IC50 (CDK9/cyclin T1) [nM] | IC50 (CDK5) [nM] | IC50 (CDK6) [nM] | IC50 (CDK4) [nM] | IC50 (CDK2) [nM] | IC50 (CDK1) [nM] | Structure (SMILES) | CDK 7 inhibitory activity (IC50) (CDK7)
1100 | 5.3 | 262 | 0.66 | 1.2 | 346 | 162 | CN(C)C(=O)c1sc2cnc(Nc3ccc(N4CCNCC4)cn3)cc2c1C1CCCC1 [Compound A1, 3-cyclopentyl-N,N-dimethyl-5-((5-(piperazin-1-yl)pyridin-2-yl)amino)thieno[2,3-c]pyridine-2-carboxamide] | 
3290 | 13.4 | 266 | 1.1 | 1.4 | 942 | 39.5 | CN(C)C(=O)c1sc2cnc(Nc3ccc(N4CCNCC4)cn3)cc2c1C1CCCCC1 [Compound A5, 3-cyclohexyl-N,N-dimethyl-5-((5-(piperazin-1-yl)pyridin-2-yl)amino)thieno[2,3-c]pyridine-2-carboxamide] | 
14.9 | 1.3 | 24.4 | 0.3 | 1.1 | 2.8 | 5.4 | N#Cc1sc2cnc(Nc3ccc(N4CCNCC4)cn3)cc2c1C1CCCC1 [Compound B1, 3-cyclopentyl-5-((5-(piperazin-1-yl)pyridin-2-yl)amino)thieno[2,3-c]pyridine-2-carbonitrile] | 
9790 | 2.5 |  | 1.4 | 4.1 | 10.3 | 26.2 | CC(=O)N1CCN(c2ccc(Nc3cc4c(C5CCCC5)c(C#N)sc4cn3)nc2)CC1 [Compound B12, 5-((5-(4-acetylpiperazin-1-yl)pyridin-2-yl)amino)-3-cyclopentylthieno[2,3-c]pyridine-2-carbonitrile] | 

Structure (SMILES) | IC50 (CDK7) [nM] | IC50 (CDK9/cyclin T1) [nM] | IC50 (CDK5) [nM] | IC50 (CDK6) [nM] | IC50 (CDK4) [nM] | IC50 (CDK2) [nM] | IC50 (CDK1) [nM] | CDK 7 inhibitory activity (IC50) (CDK7)
N#Cc1sc2cnc(Nc3cccc(N4CCOCC4)c3)cc2c1C1CCCC1 [Compound B10, 3-cyclopentyl-5-((3-morpholinophenyl)amino)thieno[2,3-c]pyridine-2-carbonitrile] |  | 308 |  | 838 | 1540 | 308 | 834 | inactive
CS(=O)(=O)N1CCN(c2ccc(Nc3cc4c(C5CCCC5)c(C#N)sc4cn3)nc2)CC1 [Compound B11, 3-cyclopentyl-5-((5-(4-(methylsulfonyl)piperazin-1-yl)pyridin-2-yl)amino)thieno[2,3-c]pyridine-2-carbonitrile] |  | 8.1 |  | 5.5 | 17.7 | 49.9 | 101 | inactive
